Results reported in ChEMBL document CHEMBL1201862, “PubChem BioAssay data set” (2004).
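Exposure lasted 48 hours, with cells grown in 96-well plates and compounds tested at five concentrations. GI50 = concentration required for 50% inhibition of growth.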 Active and inactive are the calls of the source. Cut-off read from the data, not from the text of the source: active = GI50 up to about 1.1 µM and inactive = higher.

Experiments:
Assay in all cases: growth of human tumour cells (NCI), 48 h
PC-3 = test system: PC-3
SF-295 = test system: SF-295
A549 = test system: A549
HCT-116 = test system: HCT-116
U-251 = test system: U-251
COLO 205 = test system: COLO 205
HCC 2998 = test system: HCC 2998
SK-MEL-2 = test system: SK-MEL-2
SF-268 = test system: SF-268
SNB-75 = test system: SNB-75
Malme-3M = test system: Malme-3M
SK-OV-3 = test system: SK-OV-3
NCI-H460 = test system: NCI-H460
SNB-19 = test system: SNB-19
HCT-15 = test system: HCT-15
NCI-H23 = test system: NCI-H23
CAKI-1 = test system: CAKI-1
NCI-H522 = test system: NCI-H522
MCF7 = test system: MCF7
RPMI-8226 = test system: RPMI-8226

Measured: GI50

COc1cc(S(=O)(=O)Nc2nc(-c3ccc(N4C(=O)C(CC(=O)O)SC4c4cccs4)cc3)cs2)ccc1Cl (stereo unspecified)
19.9 µM: HCT-15
inactive: PC-3 49.1 µM | SF-295 > 100 µM | A549 > 100 µM | HCT-116 29.3 µM | U-251 42.6 µM | COLO 205 > 100 µM | HCC 2998 27 µM | SK-MEL-2 27.8 µM | SF-268 21.9 µM | SNB-75 17.2 µM | Malme-3M 22.6 µM | SK-OV-3 > 100 µM | NCI-H460 > 100 µM | SNB-19 79.6 µM | NCI-H23 22.6 µM | CAKI-1 55.5 µM | NCI-H522 17.8 µM | MCF7 25 µM

O=C(OCc1ccccc1[N+](=O)[O-])N1c2ccccc2[C@@]23O[C@]24CCC[C@H]3C#C/C=C\C#C[C@H]14
17 µM: HCT-15
inactive: PC-3 14.8 µM | SF-295 7.01 µM | A549 4.02 µM | HCT-116 41.5 µM | U-251 11 µM | COLO 205 67.3 µM | HCC 2998 41.3 µM | SK-MEL-2 > 100 µM | SF-268 75 µM | Malme-3M 8.38 µM | SK-OV-3 > 100 µM | SNB-19 > 100 µM | NCI-H23 18.7 µM | CAKI-1 7.36 µM | NCI-H522 78 µM
active: NCI-H460 0.362 µM | MCF7 0.875 µM

CC1(C)COC(c2cccc(C(=O)c3ccccc3)c2)=N1
inactive: PC-3 38.9 µM | SF-295 40.7 µM | RPMI-8226 36.8 µM | A549 55.2 µM | HCT-116 > 100 µM | U-251 70 µM | COLO 205 56.9 µM | HCC 2998 57.9 µM | SK-MEL-2 > 100 µM | SF-268 90.4 µM | Malme-3M 46.3 µM | SK-OV-3 > 100 µM | NCI-H460 59.4 µM | SNB-19 51.4 µM | NCI-H23 34.1 µM | CAKI-1 46.7 µM | NCI-H522 16.8 µM | MCF7 47.8 µM
36.2 µM: HCT-15

NN(CC(=O)O)CC(=O)O
> 100 µM: HCT-15
inactive: PC-3 > 100 µM | SF-295 > 100 µM | RPMI-8226 > 100 µM | A549 > 100 µM | HCT-116 > 100 µM | U-251 > 100 µM | COLO 205 > 100 µM | HCC 2998 > 100 µM | SK-MEL-2 > 100 µM | SF-268 > 100 µM | Malme-3M > 100 µM | SK-OV-3 > 100 µM | NCI-H460 > 100 µM | SNB-19 > 100 µM | NCI-H23 > 100 µM | CAKI-1 > 100 µM | NCI-H522 > 100 µM | MCF7 > 100 µM

CC(OC(=O)NCn1cc(-c2ccccc2)nn1)c1ccccc1 (stereo unspecified)
inactive: PC-3 2.39 µM | SF-295 43.8 µM | RPMI-8226 30.2 µM | A549 35.7 µM | HCT-116 27.9 µM | U-251 45.7 µM | COLO 205 34.6 µM | HCC 2998 39.2 µM | SK-MEL-2 37.8 µM | Malme-3M 30.3 µM | NCI-H460 46.5 µM | SNB-19 > 100 µM | NCI-H23 27.1 µM | CAKI-1 > 100 µM | NCI-H522 27.4 µM | MCF7 38.5 µM
50.6 µM: HCT-15

CCSCCC(N)C(=O)O (stereo unspecified)
inactive: PC-3 > 100 µM | SF-295 > 100 µM | RPMI-8226 > 100 µM | A549 > 100 µM | HCT-116 > 100 µM | U-251 > 100 µM | COLO 205 > 100 µM | HCC 2998 > 100 µM | SK-MEL-2 > 100 µM | SF-268 > 100 µM | SNB-75 > 100 µM | Malme-3M > 100 µM | SK-OV-3 > 100 µM | NCI-H460 > 100 µM | SNB-19 > 100 µM | NCI-H23 > 100 µM | NCI-H522 > 100 µM | MCF7 > 100 µM
> 100 µM: HCT-15
